From paper PMC6751662, “Pharmacological and functional similarities of the human neuropeptide Y system in C. elegans challenges phylogenetic views on the FLP/NPR system” (Cell Communication and Signaling : CCS, 2019)

Experiments:
Y4R = target: T1, Y4R (Homo sapiens, UniProt P50391); test: IP accumulation assay, chimeric GαΔ6qi4myr, Y4R; format: cell-based; settings: chimeric GαΔ6qi4myr co-transfected, transiently transfected HEK293 cells, mean of at least three independent experiments
T1 construct: expressed in transfected cells; host or cells: HEK293, transient
Procedure: (§1) For measuring IP accumulation, HEK293 cells grown to 70–80% confluency in 6-well plates were transiently co-transfected using Metafectene Pro (2.5 μl/μg DNA; Biontex) with plasmids containing receptor and/or mock (empty pcDNA3.1) (for endogenous Gq-coupling) using 4 μg total DNA in a ratio of 3:1 following the manufacturer’s instructions. For testing Gα16- and GαΔ6qi4myr-coupling, plasmids encoding the corresponding Gα protein were co-transfected instead of mock. Gα16 is naturally promiscuous and stimulates the phospholipase C (PLC) pathway leading to IP production, while the exchange of the C-terminal four amino acids of Gαq for the corresponding residues of Gαi1 in the chimeric GαΔ6qi4myr confers the ability to couple to Gi/o protein-preferring receptors but still stimulate PLC, thus specifically redirecting downstream cellular signaling. 16 h post transfection, the cells were seeded into white 384-well plates at a density of 20,000 cells/well. Media was removed 24 h later and the cells were incubated with the indicated concentration of peptides for 1 h in HBSS + 20 mM LiCl. IP accumulation was measured with the HTRF-based IP-One Gq kit (Cisbio) on a microplate reader (Tecan Spark).
(§2) For in vitro activation, data is presented as mean ± SEM of at least three independent experiments conducted in technical triplicate. […] For the C. elegans NPRs, we considered the strongest response elicited by any of the peptides downstream of a particular receptor as the receptor’s maximal signal. This may or may not be the biological maximum that can be reached by the ‘true’ endogenous agonist. For the human receptors, the response to the established endogenous agonist reflected the maximal signal.

Y2R = target: T2, Y2R (Homo sapiens, UniProt P49146); test: IP accumulation assay, chimeric GαΔ6qi4myr, Y2R; format: cell-based; settings: chimeric GαΔ6qi4myr co-transfected, transiently transfected HEK293 cells, mean of at least three independent experiments
T2 construct: expressed in transfected cells; host or cells: HEK293, transient
T2 sequence (P49146 1-381): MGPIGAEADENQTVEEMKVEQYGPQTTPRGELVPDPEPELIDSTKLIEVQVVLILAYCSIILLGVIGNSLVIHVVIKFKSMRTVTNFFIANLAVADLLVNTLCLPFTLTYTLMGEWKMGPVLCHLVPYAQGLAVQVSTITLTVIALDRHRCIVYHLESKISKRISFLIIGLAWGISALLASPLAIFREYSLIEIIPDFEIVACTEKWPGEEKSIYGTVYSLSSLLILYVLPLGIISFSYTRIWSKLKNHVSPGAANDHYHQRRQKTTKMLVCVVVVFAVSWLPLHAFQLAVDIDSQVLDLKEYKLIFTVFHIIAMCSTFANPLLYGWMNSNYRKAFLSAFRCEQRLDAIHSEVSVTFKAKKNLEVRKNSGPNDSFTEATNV
Procedure: as §1, §2

NPFF1R = target: T3, NPFF1R (Homo sapiens, UniProt Q9GZQ6); test: IP accumulation assay, chimeric GαΔ6qi4myr, NPFF1R; format: cell-based; settings: chimeric GαΔ6qi4myr co-transfected, transiently transfected HEK293 cells, mean of at least three independent experiments
T3 construct: expressed in transfected cells; host or cells: HEK293, transient
Procedure: as §1, §2

NPFF2R = target: T4, NPFF2R (Homo sapiens, UniProt Q9Y5X5); test: IP accumulation assay, chimeric GαΔ6qi4myr, NPFF2R; format: cell-based; settings: chimeric GαΔ6qi4myr co-transfected, transiently transfected HEK293 cells, mean of at least three independent experiments
T4 construct: expressed in transfected cells; host or cells: HEK293, transient
Procedure: as §1, §2

Y5R = target: T5, Y5R (Homo sapiens, UniProt Q15761); test: IP accumulation assay, chimeric GαΔ6qi4myr, Y5R; format: cell-based; settings: chimeric GαΔ6qi4myr co-transfected, transiently transfected HEK293 cells, mean of at least three independent experiments
T5 construct: expressed in transfected cells; host or cells: HEK293, transient
T5 sequence (Q15761 1-445): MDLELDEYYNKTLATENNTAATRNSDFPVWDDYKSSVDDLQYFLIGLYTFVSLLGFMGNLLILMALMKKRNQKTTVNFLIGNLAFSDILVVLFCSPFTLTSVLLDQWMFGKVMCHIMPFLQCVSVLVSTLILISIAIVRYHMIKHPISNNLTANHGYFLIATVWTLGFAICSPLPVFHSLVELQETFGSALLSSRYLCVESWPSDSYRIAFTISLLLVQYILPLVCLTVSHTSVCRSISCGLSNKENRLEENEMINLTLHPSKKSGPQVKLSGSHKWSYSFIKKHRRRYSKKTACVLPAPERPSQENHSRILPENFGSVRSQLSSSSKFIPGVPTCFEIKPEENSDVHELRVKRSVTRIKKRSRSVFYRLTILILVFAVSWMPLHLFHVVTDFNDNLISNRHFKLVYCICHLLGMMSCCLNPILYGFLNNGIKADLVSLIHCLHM
Procedure: as §1, §2

[1] = Solubility of crude peptides in RP-HPLC purification solvents; format: physicochemical
Procedure: C-terminally amidated peptides were synthesized in 15 μmol scale by solid-phase peptide synthesis following the Fmoc/tert-butyl strategy (reviewed in [18]) on Rink amide resin using an automated Syro II peptide synthesizer (MultiSynTech). Automated coupling reactions were performed as double couplings using 8 eq Nα-protected amino acid, activated in situ with equimolar amounts of Oxyma and […] in dimethylformamide (DMF) for 30 min. Automated Fmoc deprotection was carried out with 40% (v/v) piperidine in DMF for 3 min and 20% (v/v) piperidine in DMF for 10 min. Reactive side chains of amino acids were protected by tert-butyl (tBu for Tyr, Ser, Asp, Glu, Thr), trityl (Trt for Asn, Gln, His), 2,2,4,6,7-pentamethyldihydrobenzofuran-5-sulfonyl (Pbf for Arg) and tert-butyloxycarbonyl (Boc for Lys). Peptides were cleaved off the resin using trifluoroacetic acid (TFA)/H2O/triisopropylsilane (90/5/5, v/v/v) for 2.5 h at room temperature and precipitated in ice cold diethyl ether. All peptides were purified to > 95% purity by RP-HPLC (Shimadzu) using a Phenomenex Jupiter 10 μm Proteo 90 Å (C12) column. For most peptides, linear gradients of H2O + 0.1% trifluoroacetic acid (TFA) (eluent A) and acetonitrile (ACN) + 0.08% TFA (eluent B) were applied at a flow rate of 10 ml/minute. […] FLP-27, FLP-33, and FLP-34 were solubilized by ultrasonication at 50 °C for 10 min and subsequently purified under standard solvent conditions used pre-heated HPLC systems. […] Peptide identity was verified by matrix-assisted laser desorption/time of flight (MALDI-ToF; Ultraflex III MALDI-ToF/ToF, Bruker Daltonics) mass spectrometry, and peptide purity was evaluated with analytical RP-HPLC.

T3 sequence (Q9GZQ6 whole entry): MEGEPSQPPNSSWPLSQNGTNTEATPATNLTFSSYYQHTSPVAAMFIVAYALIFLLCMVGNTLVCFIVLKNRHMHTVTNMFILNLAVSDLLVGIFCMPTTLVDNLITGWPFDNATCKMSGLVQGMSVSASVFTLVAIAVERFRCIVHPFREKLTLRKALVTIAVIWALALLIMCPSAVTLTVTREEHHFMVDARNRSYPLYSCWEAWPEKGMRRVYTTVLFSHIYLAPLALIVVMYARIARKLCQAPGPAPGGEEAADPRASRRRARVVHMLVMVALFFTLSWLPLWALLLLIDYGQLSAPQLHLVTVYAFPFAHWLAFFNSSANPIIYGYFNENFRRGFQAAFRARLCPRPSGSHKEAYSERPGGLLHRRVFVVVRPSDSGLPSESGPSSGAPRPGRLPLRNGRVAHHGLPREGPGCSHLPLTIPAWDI
T1 sequence (P50391 whole entry): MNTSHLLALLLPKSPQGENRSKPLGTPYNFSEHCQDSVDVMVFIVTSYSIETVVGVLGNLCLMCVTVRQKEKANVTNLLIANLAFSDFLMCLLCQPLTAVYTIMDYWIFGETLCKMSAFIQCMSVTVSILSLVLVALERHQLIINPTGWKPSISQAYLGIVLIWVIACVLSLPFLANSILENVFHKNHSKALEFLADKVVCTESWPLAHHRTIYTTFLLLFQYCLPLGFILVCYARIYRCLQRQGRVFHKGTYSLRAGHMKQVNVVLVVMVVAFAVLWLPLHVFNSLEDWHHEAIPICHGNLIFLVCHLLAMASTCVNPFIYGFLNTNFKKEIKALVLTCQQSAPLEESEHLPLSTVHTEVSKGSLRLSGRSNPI
T4 sequence (Q9Y5X5 103-522): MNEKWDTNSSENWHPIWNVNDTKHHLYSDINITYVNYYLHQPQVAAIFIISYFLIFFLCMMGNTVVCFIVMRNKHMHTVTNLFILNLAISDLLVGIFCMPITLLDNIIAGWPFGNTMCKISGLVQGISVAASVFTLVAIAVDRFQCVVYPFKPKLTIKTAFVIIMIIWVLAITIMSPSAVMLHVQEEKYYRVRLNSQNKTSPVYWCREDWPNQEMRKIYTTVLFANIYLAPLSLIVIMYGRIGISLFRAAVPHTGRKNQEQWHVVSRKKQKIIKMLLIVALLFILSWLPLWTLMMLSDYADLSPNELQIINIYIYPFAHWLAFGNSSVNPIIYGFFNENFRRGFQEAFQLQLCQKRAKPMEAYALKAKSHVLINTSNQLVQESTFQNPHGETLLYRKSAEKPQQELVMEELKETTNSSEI

NPENDTPFGTMRF-NH2 [FLP-3-4, C. elegans FMRFamide-like peptide, C-terminally amidated, synthesized by SPPS]
IP accumulation, x-fold of basal (mean), Y4R (Y4R; 0.1 µM peptide): 1.31 x-fold of basal
IP accumulation, x-fold of basal (mean), Y4R (Y4R; 10 µM peptide): 1.29 x-fold of basal
IP accumulation, x-fold of basal (mean), Y2R (Y2R; 0.1 µM peptide): 1.01 x-fold of basal
IP accumulation, x-fold of basal (mean), Y2R (Y2R; 10 µM peptide): 0.70 x-fold of basal
IP accumulation, x-fold of basal (mean), NPFF1R (NPFF1R; 0.1 µM peptide): 1.29 x-fold of basal
IP accumulation, x-fold of basal (mean), NPFF1R (NPFF1R; 10 µM peptide): 3.42 x-fold of basal
IP accumulation, x-fold of basal (mean), NPFF2R (NPFF2R; 0.1 µM peptide): 1.58 x-fold of basal
IP accumulation, x-fold of basal (mean), NPFF2R (NPFF2R; 10 µM peptide): 3.28 x-fold of basal
IP accumulation, x-fold of basal (mean), Y5R (Y5R; 0.1 µM peptide): 0.67 x-fold of basal
IP accumulation, x-fold of basal (mean), Y5R (Y5R; 10 µM peptide): 1.41 x-fold of basal
solubility of crude peptide at basic pH ([1]; 10 mM (NH4)2CO3, pH 8.5, used for purification): improved solubility at basic pH
solubility of crude peptide ([1]; H2O + 0.1% TFA / acetonitrile + 0.08% TFA (RP-HPLC purification conditions)): partly insoluble
